Measurements reported in ChEMBL document CHEMBL4265885, “New piperidine-based derivatives as sigma receptor ligands. Synthesis and pharmacological evaluation” (Bioorg Med Chem Lett, 2018).

Tests used:
SH-SY5Y = test: Cytotoxicity against human SH-SY5Y cells at 50 uM after 48 hrs by MTT assay; type: functional
PANC-1 = test: Cytotoxicity against human PANC1 cells at 50 uM after 48 hrs by MTT assay; type: functional
[1] = target: Sigma non-opioid intracellular receptor 1 (Rattus norvegicus, UniProt Q9R0C9); test: Displacement of [3H]-(+)-pentazocine from sigma1 receptor in rat liver membranes after 120 mins by liquid scintillation counting; type: cell membranes, Membrane
Sigma non-opioid intracellular receptor 1, sequence (Q9R0C9 whole entry): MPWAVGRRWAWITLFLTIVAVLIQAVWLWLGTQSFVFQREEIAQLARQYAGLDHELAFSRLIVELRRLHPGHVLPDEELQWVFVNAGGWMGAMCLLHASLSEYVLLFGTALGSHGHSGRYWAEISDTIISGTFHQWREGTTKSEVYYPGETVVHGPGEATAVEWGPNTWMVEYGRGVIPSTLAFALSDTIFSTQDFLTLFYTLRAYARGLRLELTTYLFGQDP

Rattus norvegicus = organism: Rattus norvegicus; test: Selectivity index, ratio of Ki for sigma2 receptor in rat liver membranes to Ki for sigma1 receptor in rat liver membranes; type: cell membranes
[2] = target: T1, Sigma intracellular receptor 2 (Rattus norvegicus, UniProt Q5U3Y7); test: Displacement of [3H]-DTG from sigma2 receptor in rat liver membranes after 120 mins by liquid scintillation counting; type: cell membranes, Membrane
T1 sequence (Q5U3Y7 whole entry): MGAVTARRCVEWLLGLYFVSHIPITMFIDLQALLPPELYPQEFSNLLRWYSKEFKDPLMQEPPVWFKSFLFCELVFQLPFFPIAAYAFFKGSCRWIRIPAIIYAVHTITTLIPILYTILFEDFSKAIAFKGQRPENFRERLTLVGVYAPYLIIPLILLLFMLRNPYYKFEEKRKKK

Fc1ccc(-n2cc(CCCCN3CCC4(CC3)OCc3ccccc34)c3ccccc32)cc1 [SIRAMESINE]
Activity (SH-SY5Y): 90% | Activity (PANC-1): 90%

CC(C)=CCN1CCC2(C)c3cc(O)ccc3CC1C2C (stereo unspecified) [PENTAZOCINE]
Activity (SH-SY5Y): 5% | Activity (PANC-1): 5%

CCCN(CC1CCN(Cc2ccccc2)CC1)C(C)=O
Ki [1]: 36.8 nM

Cc1ccccc1NC(=N)Nc1ccccc1C [DITOLYLGUANIDINE]
Activity (SH-SY5Y): 80% | Activity (PANC-1): 80%

O=C(CCCN1CCC(O)(c2ccc(Cl)cc2)CC1)c1ccc(F)cc1 [HALOPERIDOL]
Activity (SH-SY5Y): 66% | Activity (PANC-1): 66%

CCN(CC1CCN(Cc2ccccc2)CC1)C(C)=O
Ratio Ki (Rattus norvegicus): 4.3 | Ki [2]: 422 nM | Ki [1]: 97.2 nM

CCCN(CCC)CCc1ccc(OC)c(OCCc2ccccc2)c1
Activity (SH-SY5Y): 92% | Activity (PANC-1): 92%

c1ccc(CCN2CCCCC2)cc1
Activity (SH-SY5Y): 21% | Activity (PANC-1): 21%
